# Laboratory results published in patent US20140147410A1, “MICROBICIDE COMBINATIONS CONTAINING SILVER” (priority 2011, published 2014).
# Tests used:
# Assay type in all cases: cell-based
# [1] = tested on: Aspergillus niger ATCC# 16404; experiment: HRMIC synergy test, mold; settings: A. niger, biocide alone
# Protocol: (§1) The combinations were evaluated for synergy by determining the synergy index (S.I.) of the combination. The Synergy index calculated is based on minimum inhibitory concentrations (MIC) of two biocides (A and B) alone and in combinations. The lower the S.I. value, the better the synergy. High Resolution Minimum Inhibitory Concentration (HRMIC) method was performed to determine the potential for synergy of the combinations. The tests organisms were gram negative bacteria (Pseudomonas aeruginosa), Gram positive bacteria (Staphylococcus aureus), yeast (Candida albicans) and mold (Aspergillus niger). Contact time for the bacteria was 24 and 48 hours, yeast was 48 and 72 hrs, 3 and 7 days for mold. The test was carried out in 96well microtiter plates. […] Ca/CA+Cb/CB=Synergy Index(“SI”) • CA=concentration of compound A in ppm, acting alone, which produced an end point (MIC of Compound A). • Ca=concentration of compound A in ppm, in the mixture, which produced an end point. • CB=concentration of compound B in ppm, acting alone, which produced an end point (MIC of Compound B). • Cb=concentration of compound B in ppm, in the mixture, which produced an end point. When the sum of Ca/CA and Cb/CB is greater than one, antagonism is indicated. […] [table] [table]
# [2] = tested on: Pseudomonas aeruginosa ATCC # 15442; experiment: HRMIC synergy test, gram negative bacteria; settings: Ps. aeruginosa, contact time 24 hrs, biocide alone
# Protocol: as §1
# [3] = tested on: Candida albicans ATCC#10203; experiment: HRMIC synergy test, yeast; settings: C. albicans, biocide alone
# Protocol: as §1
# [4] = tested on: Staphylococcus aureus ATCC# 6538; experiment: HRMIC synergy test, Gram positive bacteria; settings: S. aureus, biocide alone
# Protocol: as §1
compound,measurement,setting,value
"Cc1ccc(S(=O)(=O)C(I)I)cc1 [DIMTS, diiodomethyl-p-tolylsulfone]",MIC alone (CA / CB),[1]; contact time 3rd day,0.3 ppm AI
same,MIC alone (CA / CB),[1]; contact time 7th day,0.5 ppm AI
same,MIC alone (CA / CB),[2],>1000 ppm AI
same,MIC alone (CA / CB),[3]; contact time 48 hrs,20 ppm AI
same,MIC alone (CA / CB),[3]; contact time 72 hrs,30 ppm AI
same,MIC alone (CA / CB),[4]; contact time 24 hrs,30 ppm AI
same,MIC alone (CA / CB),[4]; contact time 48 hrs,400 ppm AI
